PMC8378262 (Journal of controlled release : official journal of the …, 2021)
Several values for one entry are separate records, joined by “and”; a condition that tells them apart may be missing. Equal values may be shown once. Read-outs that look alike come from different tables or passages of the source.

Key:
[1] = Pharmacokinetics in rat plasma after intravenous administration; assay type: in vivo, Sprague Dawley rats
ROCK-II = ROCK-II (Homo sapiens, UniProt O75116); test: Cell-free Rho-associated kinase activity; assay type: biochemical
PAH-SMC = test: Antiproliferative effects, Cell Counting Kit-8, PAH-SMC; assay type: cell-based, human
phospho-MYPT1 [2] = test: Myosin phosphatase-targeting protein phosphorylation; assay type: cell-based, human; details: PAH-SMCs, 1.0 μM, 24 h
cGMP [3] = test: Intracellular cGMP; assay type: cell-based, human; details: for intracellular level of cGMP: PAH-SMCs, 0.1–0.001 μM
phospho-MYPT1 [4] = test: Myosin phosphatase-targeting protein phosphorylation; assay type: cell-based, human; details: PAH-ECs, 1.0 μM
cGMP [5] = test: Intracellular cGMP; assay type: cell-based, human; details: PAH-ECs
PAH-EC = test: cells; assay type: cell-based; details: Homo sapiens, 24 h
[6] = molecular target: T1, bactosomal human NADPH-CYP reductase (Homo sapiens, UniProt P16435); test: Enzymatic reduction assay of FasPRO, LC-MS/MS; assay type: in vitro ADME
T1 sequence (P16435 1-677): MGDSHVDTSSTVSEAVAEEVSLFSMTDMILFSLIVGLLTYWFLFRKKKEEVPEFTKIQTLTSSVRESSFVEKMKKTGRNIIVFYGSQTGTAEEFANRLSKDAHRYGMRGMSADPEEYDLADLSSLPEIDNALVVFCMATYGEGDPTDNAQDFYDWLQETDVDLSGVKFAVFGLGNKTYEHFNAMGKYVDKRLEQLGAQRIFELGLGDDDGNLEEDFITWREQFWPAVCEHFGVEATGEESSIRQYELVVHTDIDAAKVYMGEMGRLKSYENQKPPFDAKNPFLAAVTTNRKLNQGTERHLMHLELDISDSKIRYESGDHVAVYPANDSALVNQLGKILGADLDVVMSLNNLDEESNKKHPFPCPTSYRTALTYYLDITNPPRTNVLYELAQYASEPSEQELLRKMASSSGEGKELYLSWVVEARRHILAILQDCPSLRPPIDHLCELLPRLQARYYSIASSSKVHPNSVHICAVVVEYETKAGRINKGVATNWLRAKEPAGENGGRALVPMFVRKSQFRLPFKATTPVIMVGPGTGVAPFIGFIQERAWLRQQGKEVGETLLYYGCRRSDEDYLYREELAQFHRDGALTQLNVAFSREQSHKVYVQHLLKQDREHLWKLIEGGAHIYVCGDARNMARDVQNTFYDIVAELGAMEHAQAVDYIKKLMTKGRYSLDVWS

PAH-ECs = test: Bioreduction of FasPRO in cultured PAH-ECs; assay type: cell-based, human; details: 24 h incubation
PAH-SMCs = test: Bioreduction of FasPRO in cultured PAH-SMCs; assay type: cell-based, human
N-SMC = test: Antiproliferative effects, Cell Counting Kit-8, N-SMC; assay type: cell-based, human
[7] = male, Sprague-Dawley, rat, plasma, iv, 3 mg/kg
[8] = read-out: PAH-EC (IC50) Hypoxia
[9] = read-out: PAH-EC (IC50) Normoxia
[10] = Homo sapiens, 24 h, read-out: N-SMC (IC50) Normoxia
[11] = Homo sapiens, 24 h, read-out: PAH-SMC (IC50) Normoxia, normoxia, 24 h treatment

ROCK-II, sequence (O75116 whole entry, species assumed): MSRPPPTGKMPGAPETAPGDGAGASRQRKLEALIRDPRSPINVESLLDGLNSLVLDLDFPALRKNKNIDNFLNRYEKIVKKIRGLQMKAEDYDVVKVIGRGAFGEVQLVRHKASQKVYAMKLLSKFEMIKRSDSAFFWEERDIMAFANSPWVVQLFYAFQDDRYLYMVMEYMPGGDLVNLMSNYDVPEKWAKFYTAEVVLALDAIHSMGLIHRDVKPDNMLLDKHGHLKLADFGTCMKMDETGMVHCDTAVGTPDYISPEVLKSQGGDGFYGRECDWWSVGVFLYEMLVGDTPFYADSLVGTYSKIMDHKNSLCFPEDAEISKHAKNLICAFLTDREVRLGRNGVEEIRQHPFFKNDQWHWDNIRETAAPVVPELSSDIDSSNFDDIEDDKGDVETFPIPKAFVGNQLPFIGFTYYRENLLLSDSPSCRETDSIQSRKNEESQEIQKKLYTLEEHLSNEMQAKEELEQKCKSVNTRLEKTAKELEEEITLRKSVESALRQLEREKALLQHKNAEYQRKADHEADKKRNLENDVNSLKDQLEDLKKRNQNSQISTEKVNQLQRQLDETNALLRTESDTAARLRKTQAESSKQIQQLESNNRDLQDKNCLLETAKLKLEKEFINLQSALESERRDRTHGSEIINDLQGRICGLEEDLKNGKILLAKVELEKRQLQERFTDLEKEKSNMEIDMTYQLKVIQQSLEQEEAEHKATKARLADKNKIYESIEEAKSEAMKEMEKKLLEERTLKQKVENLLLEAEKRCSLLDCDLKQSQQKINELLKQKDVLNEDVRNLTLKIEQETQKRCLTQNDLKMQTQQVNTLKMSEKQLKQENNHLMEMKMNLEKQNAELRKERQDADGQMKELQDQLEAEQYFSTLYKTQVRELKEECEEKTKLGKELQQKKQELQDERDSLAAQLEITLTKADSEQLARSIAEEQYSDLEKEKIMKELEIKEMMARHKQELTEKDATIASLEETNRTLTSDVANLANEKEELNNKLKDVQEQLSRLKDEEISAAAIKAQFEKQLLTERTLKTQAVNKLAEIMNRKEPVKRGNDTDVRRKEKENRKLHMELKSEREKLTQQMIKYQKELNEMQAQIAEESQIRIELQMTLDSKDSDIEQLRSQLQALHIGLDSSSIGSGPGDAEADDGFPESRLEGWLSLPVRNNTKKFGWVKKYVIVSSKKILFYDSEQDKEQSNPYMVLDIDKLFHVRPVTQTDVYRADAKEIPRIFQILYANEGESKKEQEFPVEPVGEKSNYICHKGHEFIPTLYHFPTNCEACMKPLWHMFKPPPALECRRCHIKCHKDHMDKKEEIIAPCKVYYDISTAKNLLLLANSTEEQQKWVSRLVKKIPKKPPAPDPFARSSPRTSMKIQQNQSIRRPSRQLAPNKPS

Structure (SMILES)	hypoxia-driven phosphorylation of MYPT1 (phospho-MYPT1 [2])	AUC(0-inf) [1, 7] [ng·h/mL]	C0 [1, 7] [ng/mL]	Vd [1, 7] [L/kg]	clearance [1, 7] [mL/min/kg]	intracellular level of cGMP (cGMP [3]; hypoxia)	intracellular level of cGMP (cGMP [3]; normoxia)	hypoxia-driven phosphorylation of MYPT1 (phospho-MYPT1 [4])	intracellular level of cGMP (cGMP [5]; hypoxia)	intracellular level of cGMP (cGMP [5]; normoxia)	IC50 (PAH-EC; [8]) [µM]	IC50 (PAH-EC; [9]) [µM]	IC50 (N-SMC; [10]) [nM]	IC50 (PAH-SMC; [11]) [µM]	other results
O=c1[nH]ccc2c(S(=O)(=O)N3CCCNCC3)cccc12 [FasOH, reference compound]	–	–	–	–	–	–	–	–	–	–	–	–	–	–	maximum plasma concentration (Cmax) of FasOH as share of that of the parent drug ([1]; rats given intravenous fasudil 3 mg/kg): 37~52%; inhibition of the kinase activity of ROCK-II (comparison in words) (ROCK-II; 1.0 mU ROCK-II, 10 μM ATP): equal potency; IC50 (PAH-SMC; Homo sapiens, 24 h, read-out: PAH-SMC (IC50) Hypoxia): 10.3 ± 2.6 µM; IC50 (PAH-SMC; Homo sapiens, 24 h, read-out: PAH-SMC (IC50) Normoxia): 6.9 µM
O=[N+]([O-])c1ccc(COc2nccc3c(S(=O)(=O)N4CCCNCC4)cccc23)cc1 [FasPRO, 5-((1,4-diazepan-1-yl)sulfonyl)-1-((4-nitrobenzyl)oxy)isoquinoline]	reversed the process	951 ± 137	471 ± 122	10.1 ± 4	18.3	dose-dependently increased	did not improve cGMP secretion	reversed the process	dose-dependently increased	did not improve cGMP secretion	25.4 ± 4.8	2720 ± 50.9	248000 ± 28900	53.5	phospho-MYPT-1 level (phospho-MYPT1 [2]; normoxia): did not cause any changes; terminal half-life of FasPRO relative to that of fasudil ([1]; Sprague-Dawley rats, intravenous, 3 mg/kg): 36 fold and ~ 36 fold; half-life ([1]; male, Sprague-Dawley, rat, plasma, iv, 3 mg/kg, t1/2, Sprague-Dawley rats): > 420 min; fasudil in the blood of FasPRO-treated rats ([1]; remaining two of four rats, FasPRO iv 3 mg/kg): not detectable; phospho-MYPT-1 level (phospho-MYPT1 [4]; normoxia): did not cause any changes; prodrug converted into FasOH or fasudil ([6]; hypoxia (0.1% O2), after 24 h of reaction): More than 60%; reduction of FasPRO by the reductase ([6]; normoxia, any of the time points): did not occur; content of FasPRO in cells (PAH-ECs; hypoxia, versus normoxia): decreased; fragmentation of FasPRO in cells (PAH-ECs; normoxia): did not undergo significant fragmentation; reduction in ROCK-II kinase activity on addition of the 4-nitrobenzyl group to the hydroxyl group of FasOH (ROCK-II; relative to FasOH): 15 fold; activation of FasPRO (PAH-SMCs; 0.1% O2): activated; activation of FasPRO (PAH-SMCs; 1% and 10% O2): not at 1% and 10% O2; fragments of FasPRO after bioreduction in cell lysate (PAH-SMCs; 12 h, hypoxia): FasOH (major fragment) or fasudil (minor fragment); content of FasPRO in cells (PAH-SMCs; hypoxia, 24 h incubation, versus normoxia): decreased; fragmentation of FasPRO in cells (PAH-SMCs; normoxia, 24 h incubation): did not undergo significant fragmentation; IC50 (N-SMC; Homo sapiens, 24 h, read-out: N-SMC (IC50) Hypoxia): 1040 ± 100 nM; concentrations at which an antiproliferative effect was observed (PAH-SMC; normoxia, cells not given): > 100 µM
O=S(=O)(c1cccc2cnccc12)N1CCCNCC1 [Fasudil, reference compound]	reversed the process	363 ± 54.1	1360 ± 368	0.9 ± 0.2	46.7	dose-dependently increased	dose-dependently increased	reversed the process	dose-dependently increased	dose-dependently increased	34.1 ± 5.9	16 ± 1.2	2800 ± 600	4.9	increase in cGMP levels in PAH-SMCs compared to PAH-ECs (cGMP [3]; fasudil preincubation): 5 fold; IC50 (N-SMC; read-out: N-SMC (IC50) Hypoxia, hypoxia (0.1% O2), 24 h treatment): 1680 ± 500 nM; IC50 (PAH-SMC; read-out: PAH-SMC (IC50) Normoxia, normoxia, 24 h treatment): 4.95 ± 1.3 µM
